Assay results published in patent publication US9926281B2 (priority 2014, dated 2018).
Like-named read-outs stand apart in the source and are kept apart here.

Assays:
[1] = target: rnADAMTS-5 (1-564-6H) (Rattus norvegicus, UniProt Q6TY19); conditions: read-out: Rat ADAMTS-5 potency IC50
[2] = target: T1, human MMP13 (Homo sapiens (Human), UniProt P45452); conditions: read-out: hMMP-13 potency IC50
Experimental: Human MMP13 is preactivated by incubated the enzyme in the same buffer complemented with 1 mM freshly prepared p-Aminophenylmercuric acetate (AMPA) for 1 hour at 37° C.

[3] = target: human MMP14 (Homo sapiens (Human), UniProt P50281); conditions: read-out: hMMP-14 potency IC50
[4] = target: human TACE (Homo sapiens (Human), UniProt P78536); conditions: read-out: TACE potency IC50
[5] = target: T2, human ADAMTS-5 (Homo sapiens (Human), UniProt Q9UNA0); conditions: read-out: hADAMTS-5 potency IC50
Experimental: Finally, the fluorescence is read on the Envision (Perkin Elmer) after an incubation of 90 min at 37° C.

[6] = target: T2, human ADAMTS-5; conditions: read-out: hADAMTS-5 potency IC50; remark: listed apart in the source
[7] = target: T1, human MMP13; conditions: read-out: hMMP-13 potency IC50; remark: listed apart in the source
Experimental: The reaction is initiated by adding to the assay plate 520 MMP-fret substrate XV (10 μL, 4 μM) in the same buffer.

human TACE, sequence (P78536 whole entry, looked up, change not shown): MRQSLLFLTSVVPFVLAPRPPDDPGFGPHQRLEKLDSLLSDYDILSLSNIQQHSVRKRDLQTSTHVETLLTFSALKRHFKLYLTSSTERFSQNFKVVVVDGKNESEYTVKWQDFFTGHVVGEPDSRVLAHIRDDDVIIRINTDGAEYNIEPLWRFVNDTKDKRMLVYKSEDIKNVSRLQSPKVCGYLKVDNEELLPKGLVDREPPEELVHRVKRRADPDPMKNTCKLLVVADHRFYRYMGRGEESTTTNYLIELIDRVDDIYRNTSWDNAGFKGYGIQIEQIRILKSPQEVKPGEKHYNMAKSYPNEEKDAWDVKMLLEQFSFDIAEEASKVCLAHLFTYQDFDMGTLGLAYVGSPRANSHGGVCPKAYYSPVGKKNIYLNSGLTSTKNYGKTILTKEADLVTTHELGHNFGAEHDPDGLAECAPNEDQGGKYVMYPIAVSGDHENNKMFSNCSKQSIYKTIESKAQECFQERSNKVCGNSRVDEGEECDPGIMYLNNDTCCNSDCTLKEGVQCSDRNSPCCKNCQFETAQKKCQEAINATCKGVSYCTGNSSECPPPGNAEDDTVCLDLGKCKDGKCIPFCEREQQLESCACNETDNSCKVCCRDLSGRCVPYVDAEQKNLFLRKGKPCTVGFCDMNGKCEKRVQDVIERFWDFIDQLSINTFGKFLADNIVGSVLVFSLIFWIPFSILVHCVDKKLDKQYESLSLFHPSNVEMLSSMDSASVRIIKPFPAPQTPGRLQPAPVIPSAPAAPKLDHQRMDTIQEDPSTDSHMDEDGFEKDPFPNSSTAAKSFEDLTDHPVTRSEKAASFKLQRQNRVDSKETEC
T2 sequence (Q9UNA0 262-930): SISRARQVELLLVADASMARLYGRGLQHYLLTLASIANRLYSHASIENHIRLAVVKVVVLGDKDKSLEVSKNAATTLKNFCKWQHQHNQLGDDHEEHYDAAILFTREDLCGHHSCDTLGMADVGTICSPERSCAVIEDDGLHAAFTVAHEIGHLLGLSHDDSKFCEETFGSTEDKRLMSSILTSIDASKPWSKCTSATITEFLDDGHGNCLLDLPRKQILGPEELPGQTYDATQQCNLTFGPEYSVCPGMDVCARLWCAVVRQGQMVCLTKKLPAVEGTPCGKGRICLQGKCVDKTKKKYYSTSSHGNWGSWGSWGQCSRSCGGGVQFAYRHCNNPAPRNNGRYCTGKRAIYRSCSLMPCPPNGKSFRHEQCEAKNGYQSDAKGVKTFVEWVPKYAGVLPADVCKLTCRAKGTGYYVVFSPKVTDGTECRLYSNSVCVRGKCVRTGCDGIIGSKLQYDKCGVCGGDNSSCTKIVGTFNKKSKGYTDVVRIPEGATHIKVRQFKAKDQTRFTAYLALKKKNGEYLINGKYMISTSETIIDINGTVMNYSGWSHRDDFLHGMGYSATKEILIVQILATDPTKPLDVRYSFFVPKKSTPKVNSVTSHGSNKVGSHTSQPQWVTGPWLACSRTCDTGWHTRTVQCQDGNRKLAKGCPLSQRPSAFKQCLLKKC

Row | Compound | IC50 [1] [nM] | IC50 [2] [nM] | IC50 [3] [nM] | IC50 [4] [nM] | IC50 [5] [nM] | IC50 [6] [nM] | IC50 [7] [nM]
1 | O=C1NC(=O)C(CCC(=O)N2CCN(c3cc(Cl)cc(Cl)c3)CC2)(C2CC2)N1 (centres unmarked) [compound 55, 5-cyclopropyl-5-[3-[4-(3,5-dichlorophenyl)piperazin-1-yl]-3-oxo-propyl]imidazolidine-2,4-dione] | 37 | > 20000 | > 20000 | > 3310 |  |  | 
2 | COC(CC1(C)NC(=O)NC1=O)C(=O)N1CCN(c2cc(F)cc(Cl)c2)[C@@H](C)C1 (stereo partly drawn) [compound 295, 5-[3-[(3S)-4-(3-chloro-5-fluoro-phenyl)-3-methyl-piperazin-1-yl]-2-methoxy-3-oxo-propyl]-5-methyl-imidazolidine-2,4-dione] | 71 |  | 3460 | > 20000 | 115 |  | 
3 | Cc1ccccc1N1CCN(C(=O)CC[C@@]2(c3ccccc3)NC(=O)NC2=O)CC1 [compound 27, (5S)-5-[3-[4-(o-tolyl)piperazin-1-yl]-3-oxo-propyl]-5-phenyl-imidazolidine-2,4-dione] | 124 | > 20000 | > 20000 | > 2000 |  | 90 | 
4 | C[C@H]1CN(C(=O)CC[C@@]2(C3CC3)NC(=O)NC2=O)CCN1c1cc(Cl)cc(Cl)c1 [compound 204, (5S)-5-cyclopropyl-5-[3-[(3S)-4-(3,5-dichlorophenyl)-3-methyl-piperazin-1-yl]-3-oxo-propyl]imidazolidine-2,4-dione] | 11 | > 12000 | > 20000 | 3870 | 16 |  | 
5 | CC1(CCC(=O)N2CCN(c3cc(Cl)cc(Cl)c3)CC2)NC(=O)NC1=O (centres unmarked) [compound 40, 5-[3-[4-(3,5-dichlorophenyl)piperazin-1-yl]-3-oxo-propyl]-5-methyl-imidazolidine-2,4-dione] | 234 | > 20000 | > 20000 | 2720 |  |  | 
6 | Cc1ccccc1N1CCN(C(=O)CCC2(C)NC(=O)NC2=O)CC1 (centres unmarked) [compound 12, 5-methyl-5-[3-[4-(o-tolyl)piperazin-1-yl]-3-oxo-propyl]imidazolidine-2,4-dione] | 1160 |  |  | > 4000 |  |  | > 20000
7 | Cc1ccc(Cl)cc1N1CCN(C(=O)CCC2(C3CC3)NC(=O)NC2=O)CC1 (centres unmarked) [compound 36, 5-[3-[4-(5-chloro-2-methyl-phenyl)piperazin-1-yl]-3-oxo-propyl]-5-cyclopropyl-imidazolidine-2,4-dione] | 29 | > 20000 | > 20000 | 670 |  | 34 | 
8 | C[C@H]1CN(C(=O)CC[C@@]2(C3CC3)NC(=O)NC2=O)CCN1c1cccc(F)c1 [compound 203, (5S)-5-cyclopropyl-5-[3-[(3S)-4-(3-fluorophenyl)-3-methyl-piperazin-1-yl]-3-oxo-propyl]imidazolidine-2,4-dione] | 26 | > 20000 | > 4000 | > 20000 | 46 |  | 
9 | C[C@H]1CN(C(=O)CC[C@@]2(C3CC3)NC(=O)NC2=O)CCN1c1ccc(F)c(F)c1 [compound 205, (5S)-5-cyclopropyl-5-[3-[(3S)-4-(3,4-difluorophenyl)-3-methyl-piperazin-1-yl]-3-oxo-propyl]imidazolidine-2,4-dione] | 27 | > 20000 | > 4000 | > 20000 | 26 |  | 
10 | CC1(CCC(=O)N2CCN(c3ccccc3)CC2)NC(=O)NC1=O (centres unmarked) [compound 1, 5-methyl-5-[3-oxo-3-(4-phenylpiperazin-1-yl)propyl]imidazolidine-2,4-dione] | 730 |  |  | > 20000 |  |  | > 20000
11 | CC(CC1(C)NC(=O)NC1=O)C(=O)N1CCN(c2ccccc2)[C@@H](C)C1 (stereo partly drawn) [compound 217, 5-methyl-5-[2-methyl-3-[(3S)-3-methyl-4-phenyl-piperazin-1-yl]-3-oxo-propyl]imidazolidine-2,4-dione] | 49 | > 4000 | > 4000 | > 4000 | 59 |  | 
12 | CC(CC1(CN2CCOCC2)NC(=O)NC1=O)C(=O)N1CCN(c2cc(Cl)cc(Cl)c2)CC1 (centres unmarked) [compound 242, 5-[3-[4-(3,5-dichlorophenyl)piperazin-1-yl]-2-methyl-3-oxo-propyl]-5-(morpholinomethyl)imidazolidine-2,4-dione] | 57 | > 20000 | > 20000 | 2520 | 66 |  | 
13 | COCC1(CC(C)C(=O)N2CCN(c3ccc(F)c(F)c3)[C@@H](C)C2)NC(=O)NC1=O (stereo partly drawn) [compound 226, 5-[3-[(S)-4-(3,4-difluorophenyl)-3-methyl-piperazin-1-yl]-2-methyl-3-oxo-propyl]-5-(methoxymethyl)imidazolidine-2,4-dione] |  | 3270 | 978 | > 4000 | 22 |  | 
14 | C[C@H]1CN(C(=O)CCC2(c3cocn3)NC(=O)NC2=O)CCN1c1cc(F)cc(Cl)c1 (stereo partly drawn) [compound 388, 5-[3-[(3S)-4-(3-chloro-5-fluoro-phenyl)-3-methyl-piperazin-1-yl]-3-oxo-propyl]-5-oxazol-4-yl-imidazolidine-2,4-dione] | 74 |  | 549 | > 4000 | 57 |  | 
15 | CC(CC1(C2CNC2)NC(=O)NC1=O)C(=O)N1CCN(c2ccc(F)c(F)c2)[C@@H](C)C1 (stereo partly drawn) [compound 247, 5-(azetidin-3-yl)-5-[3-[(3S)-4-(3,4-difluorophenyl)-3-methyl-piperazin-1-yl]-2-methyl-3-oxo-propyl]imidazolidine-2,4-dione] |  | > 20000 | > 4000 | > 19600 | 95 |  | 
16 | CC(CC1(C2CC2)NC(=O)NC1=O)C(=O)N1CCN(c2cncc(Cl)c2)[C@@H](C)C1 (stereo partly drawn) [compound 314, 5-[3-[(3S)-4-(5-chloro-3-pyridyl)-3-methyl-piperazin-1-yl]-2-methyl-3-oxo-propyl]-5-cyclopropyl-imidazolidine-2,4-dione] | 34 |  | > 20000 | > 4000 | 24 |  | 
17 | CC(CC1(C)NC(=O)NC1=O)C(=O)N1CCN(c2cccc(Cl)c2)[C@@H](C)C1 (stereo partly drawn) [compound 214, 5-[3-[(3S)-4-(3-chlorophenyl)-3-methyl-piperazin-1-yl]-2-methyl-3-oxo-propyl]-5-methyl-imidazolidine-2,4-dione] | 30 | > 3510 | 1230 | > 4000 | 61 |  | 
18 | COCC1(CC(C)C(=O)N2CCN(c3cc(F)ccc3C)[C@@H](C)C2)NC(=O)NC1=O (stereo partly drawn) [compound 228, 5-[3-[(3S)-4-(5-fluoro-2-methyl-phenyl)-3-methyl-piperazin-1-yl]-2-methyl-3-oxo-propyl]-5-(methoxymethyl)imidazolidine-2,4-dione] |  | > 4000 | > 20000 | > 4000 | 109 |  | 
19 | CC(CC1(C)NC(=O)NC1=O)C(=O)N1CCN(c2cccc(F)c2)[C@@H](C)C1 (stereo partly drawn) [compound 215, 5-[3-[(3S)-4-(3-fluorophenyl)-3-methyl-piperazin-1-yl]-2-methyl-3-oxo-propyl]-5-methyl-imidazolidine-2,4-dione] | 18 | > 4000 | 2600 | > 12000 | 37 |  | 
20 | CC(=O)N1CC(C2(CC(C)C(=O)N3CCN(c4ccc(F)c(F)c4)[C@@H](C)C3)NC(=O)NC2=O)C1 (stereo partly drawn) [compound 249, 5-(1-acetylazetidin-3-yl)-5-[3-[(3S)-4-(3,4-difluorophenyl)-3-methyl-piperazin-1-yl]-2-methyl-3-oxo-propyl]imidazolidine-2,4-dione] | 34 | > 4000 | 1230 | > 19600 | 36 |  | 
21 | O=C1NC(=O)[C@](CCC(=O)N2CCN(c3cc(Cl)cc(Cl)c3)CC2)(C2CC2)N1 [compound 173, (5S)-5-cyclopropyl-5-[3-[4-(3,5-dichlorophenyl)piperazin-1-yl]-3-oxo-propyl]imidazolidine-2,4-dione] | 21 | > 20000 | > 20000 | 3140 | 22 |  | 
22 | Cc1ccc(F)cc1N1CCN(C(=O)CCC2(C)NC(=O)NC2=O)CC1 (centres unmarked) [compound 51, 5-[3-[4-(5-fluoro-2-methyl-phenyl)piperazin-1-yl]-3-oxo-propyl]-5-methyl-imidazolidine-2,4-dione] | 508 |  | > 20000 | > 3660 |  |  | 
23 | CC(CC1(CCNC(=O)OC(C)(C)C)NC(=O)NC1=O)C(=O)N1CCN(c2ccc(F)c(F)c2)CC1 (centres unmarked) [compound 235, tert-butyl N-[2-[4-[3-[4-(3,4-difluorophenyl)piperazin-1-yl]-2-methyl-3-oxo-propyl]-2,5-dioxo-imidazolidin-4-yl]ethyl]carbamate] |  | 21.2 | 26 | 1320 | 16 |  | 
24 | CC(CC1(CCS(C)(=O)=O)NC(=O)NC1=O)C(=O)N1CCN(c2cc(Cl)cc(Cl)c2)CC1 (centres unmarked) [Cpd 218, 5-[3-[4-(3,5-dichlorophenyl)piperazin-1-yl]-2-methyl-3-oxo-propyl]-5-(2-methylsulfonylethyl)imidazolidine-2,4-dione] | 17 | 2220 | 1310 | 272 | 20 |  | 
25 | CC(CC1(CCN)NC(=O)NC1=O)C(=O)N1CCN(c2cc(Cl)cc(Cl)c2)CC1 (centres unmarked) [compound 210, 5-(2-aminoethyl)-5-[3-[4-(3,5-dichlorophenyl)piperazin-1-yl]-2-methyl-3-oxo-propyl]imidazolidine-2,4-dione] | 105 | > 14700 | > 20000 | 1440 | 108 |  | 
